Data as given in US6518412B1, “Gene therapy approaches to supply apolipoprotein A-I agonists and their use to treat dyslipidemic disorders” (priority 1997, dated 2003).
Blank lines part the entries; values can stand above or below the compound they belong to. Where a SMILES comes first, the peptide text is derived from it. Where no end group is shown, it is not given here.

Legend:
[1] = molecular target: T1, LCAT (purified from human plasma) (Homo sapiens, UniProt P04180); test: LCAT activation assay; format: biochemical; details: for LCAT activation as compared with native ApoA-I: native ApoA-I = 100% activation
T1 construct: from tissue; host or cells: human plasma
T1 sequence (P04180 25-440): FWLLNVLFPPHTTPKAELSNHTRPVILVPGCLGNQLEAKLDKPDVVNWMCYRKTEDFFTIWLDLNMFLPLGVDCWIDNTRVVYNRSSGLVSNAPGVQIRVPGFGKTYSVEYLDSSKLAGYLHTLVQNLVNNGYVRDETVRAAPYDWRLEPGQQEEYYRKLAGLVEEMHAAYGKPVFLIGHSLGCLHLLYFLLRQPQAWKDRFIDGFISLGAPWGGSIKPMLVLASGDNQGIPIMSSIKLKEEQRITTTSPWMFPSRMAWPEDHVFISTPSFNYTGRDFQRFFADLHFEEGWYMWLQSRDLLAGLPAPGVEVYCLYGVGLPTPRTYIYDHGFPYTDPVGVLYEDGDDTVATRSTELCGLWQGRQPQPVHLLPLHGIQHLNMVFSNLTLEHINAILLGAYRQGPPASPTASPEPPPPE
Method: Examples of peptides which may be encoded by the nucleotides of the present invention are listed in Table VIII which also includes peptides which are chemically synthesized. […] All of the peptides listed were analyzed in vitro for their ability to activate LCAT. In the LCAT assay, substrate vesicles (small unilamellar vesicles or “SUVs”) composed of egg phophatidylcholine or 1-Palmitoyl-2-oleyl-phosphatidylcholine (POPC) and radiolabelled cholesterol are preincubated with equivalent masses either of peptide or ApoA-I (isolated from human plasma). The reaction is initiated by addition of LCAT (purified from human plasma). Native ApoA-I, which was used as positive control, represents 100% activation activity. “Specific activity” (i.e., units of activity (LCAT activation)/unit of mass) of the peptides can be calculated as the concentration of peptide that achieves maximum LCAT activation. For example, a series of concentrations of the peptide (e.g., a limiting dilution) can be assayed to determine the “specific activity” for the peptide—the concentration which achieves maximal LCAT activation (i.e., percentage conversion of cholesterol to cholesterol ester) at a specific timepoint in the assay (e.g., 1 hr.). When plotting percentage conversion of cholesterol at, e.g., 1 hr., against the concentration of peptide used, the “specific activity” can be identified as the concentration of peptide that achieves a plateau on the plottal curve.
The vesicles used in the LCAT assay are SUVs composed of egg phosphatidylcholine (EPC) or 1-palmitoyl-2-oleyl-phosphatidylcholine (POPC) and cholesterol with a molar ratio of 20:1. To prepare a vesicle stock solution sufficient for 40 assays, 7.7 mg EPC (or 7.6 mg POPC; 10 μmol), 78 μg (0.2 μmol) 4-^14C-cholesterol, 116 μg cholesterol (0.3 μmol) are dissolved in 5 ml xylene and lyophilized. Thereafter 4 ml of assay buffer is added to the dry powder and sonicated under nitrogen atmosphere at 4° C. Sonication conditions: Branson 250 sonicator, 10 mm tip, 6.5 minutes; Assay buffer: 10 mM Tris, 0.14M NaCl, 1 mM EDTA, pH 7.4). […]

[2] = test system: EPC/Chol (20:1) small unilamellar vesicles; test: Lipid binding by fluorescence spectroscopy
Method: The lipid binding properties of the peptides described in Section 6, supra, were tested by fluorescence measurements with labeled peptides, in the present case Tryptophane (Trp or W) or Naphtylalanine (Nal). The fluorescence spectra were recorded on a Fluoromax from Spex (Jobin-Yvon) equipped with a Xenon lamp of 150W, two monochromators (excitation and emission), a photomultiplier R-928 for detection sensitive in the red up to 850 nm and a thermoelectric magnetic stirred cell holder. Quartz Suprasil cuvettes were used for measurements in the micromolar concentration range. A device of variable slits (from 0.4 to 5 nm) allows modulation of the incident and emitted intensities according to the concentration of peptide used. The reported values are in general the average of between 2 to 4 spectra. The peptide concentration is determined by absorption spectrometry on a Philips PU 8800 using the absorption band of the Trp (∈280 nm=5,550 M^−1 cm^−1 in Tris buffer) or the Nal (∈224 nm=92,770 M^−1 cm^−1 in methanol).
Fluorescence spectra of the peptides were recorded between 290 nm and 450 nm in Tris-HCl buffer (20 mM, pH=7.5), in the presence and absence of lipidic vesicles. The small unilamellar vesicles were formed after rehydration in buffer of the lyophilized phospholipids, dispersion and tip sonification under a N2 stream. The lipids used were either Egg PC/Chol. (20:1) or POPC/Chol. (20:1). The spectra were recorded at a peptide concentration of 2 μM and at a temperature of 37° C. The fluorescence reference standard in the case of Trp was N-acetyltryptophanylamide (NATA).
Lipid binding studies were done through progressive lipidic vesicle addition to the peptide in solution at 2 μM (slits:5 nm in excitation and 1.5 nm in emission). Dilution effects were taken into account for the fluorescence intensity determination. The lipid concentrations were varied from 10 to 600 μM and the molar ratio of lipid to peptide (Ri) was varied from 5 to 300. The wavelength of excitation was set at 280 nm for both Trp and Nal.
The data were directly recorded and treated by an IBM-PC linked to the spectrofluorimeter through the DM3000F software from Spex. The spectra were corrected by substraction of the solvent contribution and by application of a coefficient given by the constructor taking into account the variation of the photomultiplier response versus the wavelength.
The fluorescence spectra of the peptides were characterized by the wavelength at their maximum of fluorescence emission and by their quantum yield compared to NATA in the case of peptides labeled with a tryptophane. The process of binding to lipids was analyzed by calculating the shift of the wavelength at the maximum of fluorescence emission, (λmax), and the variation of the relative fluorescence intensity of emission versus the lipid concentration. The relative fluorescence intensity is defined as the following ratio: (I-I0)λmax/I0λmax. I and I0 are both measured at the (λmax) corresponding to the initial free state of the peptide, i.e., without lipids. I is the intensity at a defined lipid to peptide ratio and I0 is the same parameter measured in absence of lipids. The absence of these variations is relevant of the absence of interactions of the peptides with the lipids.

[3] = HDL cholesterol in rabbits after injection of phospholipid/peptide complex; format: in vivo, Male New Zealand White rabbits; details: for Increase in HDL Cholesterol (%): 8 mg/kg i.v. as peptide/DPPC complexes
Method: Small discoidal particles consisting of phospholipid (DPPC) and peptide 146 (SEQ ID NO:146) were prepared following the cholate dialysis method. The phospholipid was dissolved in chloroform and dried under a stream of nitrogen. The peptide was dissolved in buffer (saline) at a concentration of 1-2 mg/ml. The lipid film was redissolved in buffer containing cholate (43° C.) and the peptide solution was added at a 3-1 phospholipid/peptide ratio. The mixture was incubated overnight at 43° C. and then dialyzed at 43° C. (24 hr.), room temperature (24 hr.) and 4° C. (24 hr.), with three changes of buffer (large volumes) at temperature point. The complexes were filter sterilized (0.22μ) for injection and storage at 4° C. The particles were separated on a gel filtration column (Superose 6 HR). The position of the peak containing the particles was identified by measuring the phospholipid concentration in each fraction. From the elution volume, the Stokes radius can was determined. The concentration of peptide in the complex was determined by determining the phenylalanine content (by HPLC) following a 16 hr. acid hydrolysis. Male New Zealand White rabbits (2.5-3 kg) were injected intravenously with a dose of phospholipid/peptide complex (8 mg/kg bodyweight peptide 146 (SEQ ID NO:146) or 10 mg/kg bodyweight ApoA-I, expressed as peptide or protein content) in a single bolus injection not exceeding 10-15 ml. The animals were slightly sedated before the manipulations. Blood samples (collected on EDTA) were taken before and 5, 15, 30, 60, 240 and 1440 minutes after injection. The hematocrit (Hct) was determined for each sample. Samples were aliquoted and stored at −20° C. before analysis. Plasma Lipids. The total plasma cholesterol, plasma triglycerides and plasma phospholipids were determined enzymatically using commercially available assays according to the manufacturer's protocols (Boehringer Mannheim, Mannheim, Germany and Biomérieux, 69280, Marcy-l'étoile, France). Lipoprotein Profiles. The plasma lipoprotein profiles of the fractions obtained after the separation of the plasma into its lipoprotein fractions were determined by spinning in a sucrose density gradient. The fractions were collected and in each individual fraction the phospholipid and cholesterol content was measured enzymatically.

Compound: CC(=O)N[C@@H](Cc1c[nH]c2ccccc12)C(N)=O [NATA, N-acetyltryptophanylamide, reference compound]
λmax ([2]; Ri 0, in buffer, 2 μM): 350 nm

Compound: PVLELFENLLERLLDALQKKLK [peptide 146]
Increase in HDL Cholesterol (%) ([3]; 5 min): 31.3%
Increase in HDL Cholesterol (%) ([3]; 15 min): 60.4%
Increase in HDL Cholesterol (%) ([3]; 60 min): 42.9%
Increase in HDL Cholesterol (%) ([3]; 240 min, 8 mg/kg): 90%
Increase in HDL Cholesterol (%) ([3]; 240 min, listed as Peptide 146, 8 mg/kg): 90.2%
Increase in HDL Cholesterol (%) ([3]; 1440 min): 71.2%
duration of the increase in cholesterol of the HDL cholesterol fractions ([3]; 8 mg/kg, apparent at 5 min following injection): approximately 24 hr

Next, values leading:

ACTIVITY (%) LCAT ([1]; LCAT activation as compared with native human ApoA-I): 0%
Compound: PVLELFERLLEDLQKKLK [peptide 229]

LCAT activation as compared with native ApoA-I [1]: 10%
Compound: CC(=O)N1CCC[C@H]1C(=O)N[C@H](C(=O)N[C@@H](CC(C)C)C(=O)N[C@@H](CC(=O)O)C(=O)N[C@@H](CCC(=O)O)C(=O)N[C@@H](Cc1ccccc1)C(=O)N[C@@H](CCCN=C(N)N)C(=O)N[C@@H](CCC(=O)O)C(=O)N[C@@H](CCCCN)C(=O)N[C@@H](CC(C)C)C(=O)N[C@@H](CC(N)=O)C(=O)N[C@@H](CCC(=O)O)C(=O)N[C@@H](CCC(=O)O)C(=O)N[C@@H](CC(C)C)C(=O)N[C@@H](CCC(=O)O)C(=O)N[C@@H](C)C(=O)N[C@@H](CC(C)C)C(=O)N[C@@H](CCCCN)C(=O)N[C@@H](CCC(N)=O)C(=O)N[C@@H](CCCCN)C(=O)N[C@@H](CC(C)C)C(=O)N[C@@H](CCCCN)C(N)=O)C(C)C [consensus 22-mer] (Ac-PVLDEFREKLNEELEALKQKLK-NH2)

lipid to peptide molar ratio at which burying of the tryptophane residue is maximal ([2]; EPC/Chol (20:1) SUVs): about 100
λmax ([2]; Ri 0, in buffer, 2 μM): 348 nm
λmax ([2]; Ri 5): 344 nm
λmax ([2]; Ri 10): 339 nm
λmax ([2]; Ri 30): 328 nm
λmax ([2]; Ri 100): 326 nm
λmax ([2]; Ri 200): 325 nm
lipid binding ([2]; small unilamellar vesicles): binds very effectively
Compound: PVLDLFRELWEELKQKLK* (not fully specified (N-terminus, C-terminus); printed as PVLDLFRELWEELKQKLK*; also: terminal modification marked *, not defined here) [peptide 199]

LCAT activation as compared with native ApoA-I [1]: less than 4%
Compound: peptide 18AM4: peptide ApoA-I mimic described in the literature (Corinjn et al., 1993) (EWLEAFYKKVLEKLKELF)
